Laboratory results as given in the OligoGym collection.
Several values for one entry are separate records, joined by “and”; a condition that tells them apart may be missing. Equal values may be shown once. After the bases stand the sugars from the 5' end (letter, count) and the backbone: PS all phosphorothioate, else s phosphorothioate and o phosphodiester by linkage. Methylation of C is not given here. e = 2'-O-(2-methoxyethyl) (MOE); k = constrained ethyl (cEt); d = 2'-deoxy (DNA)

Molecular target: KRAS
Settings: ASO

Sequence	target mRNA inhibition (A431, 2 µM)	also measured
ATGGTGTAACATAGGT (sugars kkdddddddddkekek, PS)	53%	target mRNA inhibition (NCI-H460, 0.037 µM): 52.7%
CCATTCAAAGTTCACA (sugars k3 d10 k3, PS)	42%	–
TTGTGCAATGGTGACA (sugars k3 d10 k3, PS)	29%	–
AAAAATTAATGTCTTG (sugars k3 d10 k3, PS)	20%	–
GGCAAGATGACACTAA (sugars k3 d10 k3, PS)	30%	–
AGTTTCACATAGCAAT (sugars k3 d10 k3, PS)	38%	–
AGATATCCACAGCAGC (sugars k3 d10 k3, PS)	58%	–
ATGGTGTAACATAGGT (sugars kkkddddddddkdkdk, PS)	36%	–
ACGAGAATGGATATTC (sugars k3 d10 k3, PS)	29%	–
AGTGTGACTCAGTTAA (sugars k3 d9 k3 e1, PS)	15%	–
GTGTTTATGCAATGTT (sugars kddddddddddkekek, PS)	53%	–
GATTGTGCTGAGCTTG (sugars kkddddddddkekekk, PS)	14%	–
GTGTGACTCAGTTAAA (sugars kdddddddddkekeke, PS)	25%	–
TCCAGTGATACTTTCA (sugars kkddddddddddkeke, PS)	39%	–
GGAGTCTTTATAGTAA (sugars kkddddddddddkeke, PS)	55%	target mRNA inhibition (A431, 0.185 µM): 27%; target mRNA inhibition (A431, 0.556 µM): 45%; target mRNA inhibition (A431, 1.667 µM): 57%; target mRNA inhibition (A431, 5 µM): 82%
ATATCCACAGCAGCAG (sugars k3 d10 k3, PS)	39%	–
CCAGTGATACTTTCAC (sugars kkddddddddkekekk, PS)	17%	–
TGCTGTGAAACTCTCT (sugars kkddddddddkekekk, PS)	5%	–
ATGGTGTAACATAGGT (sugars kdddddddddkekeke, PS)	39%	–

Sequence	target mRNA inhibition (A431, 2 µM)	also measured
AAGTGTTTATGCAATG (sugars k3 d10 k3, PS)	45%	–
TAGTGATTAGGTCAAA (sugars kkdddddddddkdkdk, PS)	25%	–
ATGCTGTGAAACTCTC (sugars kkddddddddkekekk, PS)	25%	–
GCTCTTGATTTGTCAG (sugars k3 d10 k3, PS)	23%	–
TAGGAGTCTTTATAGT (sugars k3 d10 k3, PS)	41%	–
GATTTGTCAGCAGGAC (sugars kkddddddddkekekk, PS)	0%	–
TTGTATCTTGTTGAGC (sugars k3 d10 k3, PS)	50%	–
CTTGATTTGTCAGCAG (sugars kkkddddddddkdkdk, PS)	33%	–
CCATTTATGTGACTAG (sugars kkkddddddddkekek, PS)	36%	–
TCCATTTATGTGACTA (sugars kddddddddddkekek, PS)	38%	–
CATGCTGTGAAACTCT (sugars k3 d10 k3, PS)	8%	–
ATGCTGTGAAACTCTC (sugars kddddddddddkekek, PS)	18%	–
CCAGTGTTAAGAGAAC (sugars kkddddddddddkeke, PS)	42%	–
TCTGAATTAGTCTCCA (sugars k3 d10 k3, PS)	62% and 50%	target mRNA inhibition (A431, 0.185 µM): 0%; target mRNA inhibition (A431, 0.556 µM): 26%; target mRNA inhibition (A431, 1.667 µM): 48%; target mRNA inhibition (A431, 5 µM): 68%
TCATTGTTTAAAAAAA (sugars k3 d10 k3, PS)	0%	–
ATTAGTGATTAGGTCA (sugars k3 d10 k3, PS)	55%	target mRNA inhibition (A431, 0.185 µM): 2% and 25%; target mRNA inhibition (A431, 0.556 µM): 37%; target mRNA inhibition (A431, 1.667 µM): 47%; target mRNA inhibition (A431, 5 µM): 71%
AGCTTGATCGAAGAGT (sugars k3 d10 k3, PS)	–	target mRNA inhibition (A431, 5 µM): 50%
CTTTTTGACAAATGGA (sugars k3 d10 k3, PS)	22%	–
CACTTCATTGTTTAAA (sugars k3 d10 k3, PS)	12%	–
